Data reported in PubChem BioAssay (NCI).
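Step 1: Grow cells in 96-well plates. Step 2: Expose to compound for 48 hours at 5 concentrations. Step 3: Interpolate endpoints linearly; if unreached, use highest concentration. Here, GI50 denotes the concentration required for 50% inhibition of growth. TGI: total growth inhibition.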

How the values were obtained:
Assay in all cases: NCI-60 cell line screen, 48 h
SR leukemia = test system: SR leukemia
OVCAR-8 ovarian = test system: OVCAR-8 ovarian
HOP-92 NSCLC = test system: HOP-92 NSCLC
UACC-62 melanoma = test system: UACC-62 melanoma
MOLT-4 leukemia = test system: MOLT-4 leukemia
M14 melanoma = test system: M14 melanoma
COLO 205 colon = test system: COLO 205 colon
HCT-116 colon = test system: HCT-116 colon
KM20L2 colon = test system: KM20L2 colon
SNB-78 CNS = test system: SNB-78 CNS

SMILES	GI50 (SR leukemia) [µM]	TGI (SR leukemia) [µM]	TGI (OVCAR-8 ovarian) [µM]	TGI (HOP-92 NSCLC) [µM]	TGI (UACC-62 melanoma) [µM]	TGI (MOLT-4 leukemia) [µM]	TGI (M14 melanoma) [µM]	TGI (COLO 205 colon) [µM]	TGI (HCT-116 colon) [µM]	TGI (KM20L2 colon) [µM]	TGI (SNB-78 CNS) [µM]	GI50 (KM20L2 colon) [µM]	GI50 (OVCAR-8 ovarian) [µM]	GI50 (HOP-92 NSCLC) [µM]	GI50 (UACC-62 melanoma) [µM]	GI50 (SNB-78 CNS) [µM]	GI50 (MOLT-4 leukemia) [µM]	GI50 (M14 melanoma) [µM]	GI50 (COLO 205 colon) [µM]	GI50 (HCT-116 colon) [µM]
Nc1nc(N)c2cc(Sc3ccc4ccccc4c3)ccc2n1	0.805	5	2.84	5.44	6.09	5.51	2.88	2.91	1.69	–	–	–	–	–	–	–	–	–	–	–
COc1ccc2c(c1)CN([C@@H](C)[C@H]1CC[C@H]3[C@@H]4CC[C@H]5C[C@@H](O)CC[C@]5(C)[C@H]4CC[C@]13C)CO2	–	2.61	> 24.1	3.71	3.88	2.98	3.54	3.85	7.22	–	–	–	–	–	–	–	–	–	–	–
CCC1=CCN(c2cc(C)ccn2)OC1c1ccccc1 (stereo unspecified)	–	55.7	> 100	–	> 100	> 100	> 100	> 100	> 100	> 100	> 100	–	–	–	–	–	–	–	–	–
C1=Cc2nc1c(-c1ccccc1)c1ccc([nH]1)c(-c1ccccc1)c1nc(c(-c3ccccc3)c3ccc([nH]3)c2-c2ccccc2)C=C1	–	> 100	> 100	> 100	> 100	> 100	> 100	> 100	> 100	> 100	> 100	–	–	–	–	–	–	–	–	–
CCOC(=O)C1Cc2ccc3c4c(ccc(c24)C1)CC(C(=O)OCC)C3	–	> 100	> 100	> 100	> 100	> 100	> 100	> 100	> 100	> 100	> 100	–	–	–	–	–	–	–	–	–
CC(=O)OC(C(=O)[O][Sn]([CH3])([CH3])[CH3])c1ccccc1 (stereo unspecified)	> 100	> 100	> 100	> 100	> 100	> 100	> 100	> 100	> 100	> 100	> 100	> 100	> 100	> 100	> 100	> 100	> 100	> 100	> 100	> 100
O=C(Nc1cccc2[nH]c(C(F)(F)F)nc12)c1cc(Cl)ccc1Cl	3.04	8.96	31.6	6.72	16.1	8.65	16.3	3.62	12.9	–	–	–	3.68	2.09	3.47	–	3	3.32	1.84	3.06
N=c1ccc2nc3ccc(N)cc3sc-2c1	4.65	> 100	14	61	8.38	> 100	21.8	12.5	10.5	–	–	–	3.69	17.7	2.93	–	4.59	4.34	2.25	2.67
COc1ccc(/C=C2/C(=O)N(C(=O)c3ccccc3O)N=C2C)cc1	–	> 100	> 41.1	> 100	> 100	> 100	> 100	> 89.2	> 100	> 100	–	–	–	–	–	–	–	–	–	–
COc1cc(OCc2cccc(-c3ccccc3)c2C)cc(OC)c1CN1CCCCC1C(=O)NCCOCCOCCN (stereo unspecified)	1.74	4.24	12.1	5.45	3.41	5.79	3.57	3.7	4.64	–	–	–	3.26	1.57	1.79	–	2.08	1.84	1.82	2.04
Cc1ccc(S(=O)(=O)c2nc(-c3ccccc3)oc2S(C)(=O)=O)cc1	2	7.69	3.8	3.48	3.98	5.87	3.63	3.21	3.25	–	–	–	1.96	1.84	1.89	–	2.27	1.74	1.7	1.78
CN(C)c1ccc(/C=C(\NC(=O)c2ccccc2)c2nc3ccc4c(c3[nH]2)C(=O)c2ccccc2C4=O)cc1	–	–	> 100	97.3	> 100	31.3	> 100	> 100	> 100	> 100	> 100	–	–	–	–	–	–	–	–	–
CCN1[C@@H](C(=O)NC23CCC(C(=O)O)(CC2)CC3)[C@H](c2cccc(Cl)c2F)[C@]2(C(=O)Nc3cc(Cl)ccc32)C12CCCCC2	0.0146	4.72	18.7	6.45	2.24	> 22.9	13.1	10.6	3.11	–	–	–	3.84	2.15	0.0372	–	0.164	3.22	3.02	0.104
CCCCCCCCCc1ccc(OCCOCCOCCOCCOCCOCCOCCOCCOCCO)cc1	0.437	1.91	2.71	3.07	1.25	2.15	2.13	0.829	1.59	–	–	–	0.231	0.792	0.379	–	0.704	0.892	0.243	0.374
COC(=O)C(=O)C(CC(=O)Nc1ccc(C)cc1)C(=O)OC (stereo unspecified)	–	> 100	> 100	> 100	> 100	> 100	> 100	–	> 100	> 100	> 100	–	–	–	–	–	–	–	–	–
Cc1cc(CCl)c(C)cc1CCl	0.114	8.83	17.4	9.55	7.59	8.39	30.5	3.11	6.58	–	–	–	3.21	2.52	1.93	–	0.573	3.54	1.53	1.48
COc1cc(F)ccc1-c1cc(Nc2cc(CS(C)(=N)=O)ccn2)ncc1F (stereo unspecified)	0.0174	1.29	> 100	0.314	0.342	0.985	> 37.6	0.17	> 100	–	–	–	0.0914	0.0214	0.0555	–	0.111	0.0649	0.0333	0.0293
